Source: paper PMC10046369, “Low-Affinity/High-Selectivity Dopamine Transport Inhibition Sufficient to Rescue Cognitive Functions in the Aging Rat” (Biomolecules, 2023)

Assays:
Assay in all cases: cell-based
Design in all cases: Eurofins Cerep functional GPCR screen, antagonist mode, inhibition of control agonist response
Settings in all cases: read-out: % Inhibition of Control Agonist Response, Mean
[1] = biological target: T1, TSH (Homo sapiens, UniProt P16473)
T1 construct: gene TSHR

[2] = biological target: T2, Ghrelin / GHSR-1a (Homo sapiens, UniProt Q92847)
T2 construct: GHSR-1a isoform

[3] = biological target: T3, A2B (Homo sapiens, UniProt P29275)
T3 construct: gene ADORA2B
T3 sequence (P29275 whole entry): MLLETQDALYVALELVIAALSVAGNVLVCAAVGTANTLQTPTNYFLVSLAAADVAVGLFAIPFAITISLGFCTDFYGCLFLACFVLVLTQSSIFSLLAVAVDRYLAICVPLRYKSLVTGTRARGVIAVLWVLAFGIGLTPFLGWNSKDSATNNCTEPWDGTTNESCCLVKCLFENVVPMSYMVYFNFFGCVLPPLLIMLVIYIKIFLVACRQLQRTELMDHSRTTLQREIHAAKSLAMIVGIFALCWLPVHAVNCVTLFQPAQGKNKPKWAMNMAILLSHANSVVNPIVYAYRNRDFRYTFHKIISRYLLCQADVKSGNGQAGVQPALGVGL

[4] = biological target: T4, CysLT1 (LTD4) (Homo sapiens, UniProt Q9Y271)
T4 construct: gene CYSLTR1

[5] = biological target: CXCR1 (Homo sapiens, UniProt P25024)
[6] = biological target: T5, FFA3 (Homo sapiens, UniProt O14843)
T5 construct: gene FFAR3

[7] = biological target: GPR39 (Homo sapiens, UniProt O43194)
[8] = biological target: CXCR5 (Homo sapiens, UniProt P32302)
Chain of CXCR5 (P32302 whole entry): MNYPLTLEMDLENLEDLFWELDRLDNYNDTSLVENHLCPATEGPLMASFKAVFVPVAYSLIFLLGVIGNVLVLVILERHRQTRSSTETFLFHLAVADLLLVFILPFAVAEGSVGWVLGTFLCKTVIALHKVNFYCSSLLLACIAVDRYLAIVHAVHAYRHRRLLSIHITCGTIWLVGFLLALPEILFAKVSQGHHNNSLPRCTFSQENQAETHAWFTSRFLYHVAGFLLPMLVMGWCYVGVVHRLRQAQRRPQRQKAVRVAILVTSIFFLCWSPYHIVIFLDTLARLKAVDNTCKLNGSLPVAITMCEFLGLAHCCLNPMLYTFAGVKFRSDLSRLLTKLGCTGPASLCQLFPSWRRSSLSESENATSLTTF

[9] = biological target: T6, GnRH (Homo sapiens, UniProt P30968)
T6 construct: gene GNRHR

[10] = biological target: T7, BB2 (Homo sapiens, UniProt P30550)
T7 construct: gene GRPR
T7 sequence (P30550 whole entry): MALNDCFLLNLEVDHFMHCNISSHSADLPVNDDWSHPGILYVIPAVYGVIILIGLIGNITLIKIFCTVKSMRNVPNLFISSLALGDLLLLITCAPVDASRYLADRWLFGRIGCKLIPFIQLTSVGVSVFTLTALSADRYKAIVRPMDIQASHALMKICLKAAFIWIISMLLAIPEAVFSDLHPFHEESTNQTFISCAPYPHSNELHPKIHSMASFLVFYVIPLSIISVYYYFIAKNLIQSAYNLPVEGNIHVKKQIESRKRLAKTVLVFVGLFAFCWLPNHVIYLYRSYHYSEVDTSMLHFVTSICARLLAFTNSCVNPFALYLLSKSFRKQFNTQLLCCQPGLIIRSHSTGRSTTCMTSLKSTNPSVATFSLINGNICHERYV

[11] = biological target: T8, α1B (Homo sapiens, UniProt P35368)
T8 construct: gene ADRA1B
T8 sequence (P35368 whole entry): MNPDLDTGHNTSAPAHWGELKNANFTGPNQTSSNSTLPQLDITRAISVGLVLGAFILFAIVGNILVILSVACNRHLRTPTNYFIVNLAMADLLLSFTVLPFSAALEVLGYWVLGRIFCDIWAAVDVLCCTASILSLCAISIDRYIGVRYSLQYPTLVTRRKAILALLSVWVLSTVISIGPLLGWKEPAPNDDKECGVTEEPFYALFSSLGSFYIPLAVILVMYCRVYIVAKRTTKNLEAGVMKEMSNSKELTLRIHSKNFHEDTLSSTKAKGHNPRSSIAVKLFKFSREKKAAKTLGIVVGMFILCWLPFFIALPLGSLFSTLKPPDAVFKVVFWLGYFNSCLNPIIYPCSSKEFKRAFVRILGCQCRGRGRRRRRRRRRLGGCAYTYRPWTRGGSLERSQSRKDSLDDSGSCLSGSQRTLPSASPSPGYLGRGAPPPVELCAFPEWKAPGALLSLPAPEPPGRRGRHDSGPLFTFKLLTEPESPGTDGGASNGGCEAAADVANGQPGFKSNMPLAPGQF

[12] = biological target: T9, D1 (Homo sapiens, UniProt P21728)
T9 construct: gene DRD1
T9 sequence (P21728 whole entry): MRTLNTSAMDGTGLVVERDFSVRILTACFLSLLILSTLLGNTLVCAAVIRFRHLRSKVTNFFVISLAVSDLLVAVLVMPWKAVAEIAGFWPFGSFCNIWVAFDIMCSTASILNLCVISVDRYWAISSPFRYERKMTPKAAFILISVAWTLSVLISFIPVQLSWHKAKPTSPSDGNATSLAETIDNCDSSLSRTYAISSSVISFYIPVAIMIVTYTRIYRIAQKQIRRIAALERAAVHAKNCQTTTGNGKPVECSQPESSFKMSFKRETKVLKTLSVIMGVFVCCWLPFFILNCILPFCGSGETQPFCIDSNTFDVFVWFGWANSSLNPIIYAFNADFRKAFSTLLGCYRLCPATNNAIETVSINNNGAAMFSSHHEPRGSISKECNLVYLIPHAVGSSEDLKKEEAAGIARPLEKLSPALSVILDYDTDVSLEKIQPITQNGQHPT

[13] = biological target: CCR6 (Homo sapiens, UniProt P51684)
Chain of CCR6 (P51684 whole entry): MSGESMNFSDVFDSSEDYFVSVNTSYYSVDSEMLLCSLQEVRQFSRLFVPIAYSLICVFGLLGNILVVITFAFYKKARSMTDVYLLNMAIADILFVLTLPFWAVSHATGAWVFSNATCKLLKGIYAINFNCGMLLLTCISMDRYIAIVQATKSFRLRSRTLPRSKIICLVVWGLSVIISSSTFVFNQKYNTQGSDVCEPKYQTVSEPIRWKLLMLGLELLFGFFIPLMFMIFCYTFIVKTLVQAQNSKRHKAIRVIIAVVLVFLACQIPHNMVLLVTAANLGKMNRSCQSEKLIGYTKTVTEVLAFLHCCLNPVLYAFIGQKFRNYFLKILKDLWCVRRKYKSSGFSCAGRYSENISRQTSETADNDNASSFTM

[14] = biological target: T10, CaS (Homo sapiens, UniProt P41180)
T10 construct: gene CASR

[15] = biological target: T11, H3 (Homo sapiens, UniProt Q9Y5N1)
T11 construct: gene HRH3

[16] = biological target: T12, β3 (Homo sapiens, UniProt P13945)
T12 construct: gene ADRB3
T12 sequence (P13945 whole entry): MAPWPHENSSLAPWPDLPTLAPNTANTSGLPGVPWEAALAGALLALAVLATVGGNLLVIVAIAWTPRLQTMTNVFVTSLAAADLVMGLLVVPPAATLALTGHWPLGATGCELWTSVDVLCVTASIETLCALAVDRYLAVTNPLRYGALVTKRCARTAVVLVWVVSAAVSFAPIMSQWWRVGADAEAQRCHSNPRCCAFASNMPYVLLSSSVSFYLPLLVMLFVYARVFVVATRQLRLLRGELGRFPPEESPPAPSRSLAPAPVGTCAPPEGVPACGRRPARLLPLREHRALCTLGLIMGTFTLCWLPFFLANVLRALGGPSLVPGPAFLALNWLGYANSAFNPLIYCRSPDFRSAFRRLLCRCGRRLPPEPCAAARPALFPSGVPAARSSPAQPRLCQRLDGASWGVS

[17] = biological target: T13, α1A (Homo sapiens, UniProt P35348)
T13 construct: gene ADRA1A

[18] = biological target: CX3CR1 (Homo sapiens, UniProt P49238)
[19] = biological target: T14, D2S (Homo sapiens, UniProt P14416)
T14 construct: gene DRD2; D2S short isoform

[20] = biological target: T15, BLT1 (LTB4) (Homo sapiens, UniProt Q15722)
T15 construct: gene LTB4R
T15 sequence (Q15722 whole entry): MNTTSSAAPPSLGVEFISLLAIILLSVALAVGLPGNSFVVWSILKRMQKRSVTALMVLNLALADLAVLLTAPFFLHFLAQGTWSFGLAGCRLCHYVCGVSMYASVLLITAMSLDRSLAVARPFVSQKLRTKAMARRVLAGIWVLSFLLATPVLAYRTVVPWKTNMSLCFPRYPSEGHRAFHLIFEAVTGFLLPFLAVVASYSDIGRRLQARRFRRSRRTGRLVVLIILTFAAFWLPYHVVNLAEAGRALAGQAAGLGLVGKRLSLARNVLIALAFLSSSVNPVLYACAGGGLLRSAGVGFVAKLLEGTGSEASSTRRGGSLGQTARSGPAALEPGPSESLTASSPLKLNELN

[21] = biological target: CXCR2 (Homo sapiens, UniProt P25025)
Chain of CXCR2 (P25025 whole entry): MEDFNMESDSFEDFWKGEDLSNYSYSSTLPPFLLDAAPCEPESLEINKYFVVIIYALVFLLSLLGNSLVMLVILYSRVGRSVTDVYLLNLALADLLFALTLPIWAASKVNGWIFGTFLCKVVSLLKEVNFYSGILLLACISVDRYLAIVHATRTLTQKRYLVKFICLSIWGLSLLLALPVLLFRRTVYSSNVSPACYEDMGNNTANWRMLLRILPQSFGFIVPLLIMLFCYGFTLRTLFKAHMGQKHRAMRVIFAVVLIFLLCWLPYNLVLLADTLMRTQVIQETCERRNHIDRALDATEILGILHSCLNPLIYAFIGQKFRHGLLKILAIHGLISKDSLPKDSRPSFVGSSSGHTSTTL

[22] = biological target: T16, GPR103/QRFP (Homo sapiens, UniProt Q96P65)
T16 construct: gene QRFPR

[23] = biological target: CXCR3 (Homo sapiens, UniProt P49682)
[24] = biological target: T17, KiSS1 / GPR54 (Homo sapiens, UniProt Q969F8)
T17 construct: gene KISS1R
T17 sequence (Q969F8 whole entry): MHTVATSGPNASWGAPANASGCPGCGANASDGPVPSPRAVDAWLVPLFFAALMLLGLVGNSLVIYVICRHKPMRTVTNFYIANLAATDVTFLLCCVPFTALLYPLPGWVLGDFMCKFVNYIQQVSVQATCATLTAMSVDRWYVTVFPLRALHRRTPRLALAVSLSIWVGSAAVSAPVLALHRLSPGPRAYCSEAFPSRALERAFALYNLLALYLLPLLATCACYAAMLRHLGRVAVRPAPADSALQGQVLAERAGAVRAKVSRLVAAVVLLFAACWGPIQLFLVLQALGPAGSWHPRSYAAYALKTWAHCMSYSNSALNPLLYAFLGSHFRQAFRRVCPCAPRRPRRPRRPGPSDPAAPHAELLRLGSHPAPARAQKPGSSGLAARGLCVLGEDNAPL

[25] = biological target: T18, α2C (Homo sapiens, UniProt P18825)
T18 construct: gene ADRA2C
T18 sequence (P18825 whole entry): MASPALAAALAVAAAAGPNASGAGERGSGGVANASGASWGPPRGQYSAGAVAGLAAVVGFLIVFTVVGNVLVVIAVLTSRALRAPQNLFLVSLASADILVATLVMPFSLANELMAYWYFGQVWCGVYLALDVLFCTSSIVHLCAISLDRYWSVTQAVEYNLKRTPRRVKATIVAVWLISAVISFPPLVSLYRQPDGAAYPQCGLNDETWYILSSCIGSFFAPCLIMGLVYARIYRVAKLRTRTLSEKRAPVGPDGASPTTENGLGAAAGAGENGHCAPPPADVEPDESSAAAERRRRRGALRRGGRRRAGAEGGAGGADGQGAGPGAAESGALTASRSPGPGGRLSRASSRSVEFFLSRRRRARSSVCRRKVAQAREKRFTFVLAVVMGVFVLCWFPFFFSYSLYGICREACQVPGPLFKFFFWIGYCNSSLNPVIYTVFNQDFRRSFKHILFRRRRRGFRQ

[26] = biological target: T19, APJ (apelin) (Homo sapiens, UniProt P35414)
T19 construct: gene APLNR
T19 sequence (P35414 whole entry): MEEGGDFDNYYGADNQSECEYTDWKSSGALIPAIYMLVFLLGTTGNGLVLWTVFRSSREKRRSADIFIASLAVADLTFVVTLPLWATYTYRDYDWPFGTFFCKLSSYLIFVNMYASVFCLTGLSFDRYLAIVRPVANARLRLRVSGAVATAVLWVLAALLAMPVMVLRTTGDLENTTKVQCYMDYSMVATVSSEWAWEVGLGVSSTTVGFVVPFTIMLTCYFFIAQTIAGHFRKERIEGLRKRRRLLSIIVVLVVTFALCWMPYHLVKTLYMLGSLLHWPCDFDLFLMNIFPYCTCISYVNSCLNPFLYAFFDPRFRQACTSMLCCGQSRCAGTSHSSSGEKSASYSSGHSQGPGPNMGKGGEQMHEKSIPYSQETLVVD

SMILES: [O-][S@@+](Cc1cncs1)C(c1ccccc1)c1ccccc1 [S-CE-123, (S)-5-((Benzhydrylsulfinyl)Methyl)Thiazole]
- inhibition at 2.8 µM [1]: -6.1%
- inhibition at 2.8 µM [2]: -11.7%
- inhibition at 2.8 µM [3]: -11.8%
- inhibition at 2.8 µM [4]: -12.9%
- inhibition at 2.8 µM [5]: -13%
- inhibition at 2.8 µM [6]: -1.4%
- inhibition at 2.8 µM [7]: 1.6%
- inhibition at 2.8 µM [8]: -1.9%
- inhibition at 2.8 µM [9]: 3.9%
- inhibition at 2.8 µM [10]: -23.2%
- inhibition at 2.8 µM [11]: -15.1%
- inhibition at 2.8 µM [12]: -5.6%
- inhibition at 2.8 µM [13]: -26.7%
- inhibition at 2.8 µM [14]: -6.4%
- inhibition at 2.8 µM [15]: -0.3%
- inhibition at 2.8 µM [16]: 15.5%
- inhibition at 2.8 µM [17]: 3.1%
- inhibition at 2.8 µM [18]: -15.8%
- inhibition at 2.8 µM [19]: 18.1%
- inhibition at 2.8 µM [20]: -4.7%
- inhibition at 2.8 µM [21]: 3.8%
- inhibition at 2.8 µM [22]: -8.8%
- inhibition at 2.8 µM [23]: -7.8%
- inhibition at 2.8 µM [24]: -2.8%
- inhibition at 2.8 µM [25]: 0.3%
- inhibition at 2.8 µM [26]: 6.2%
